Data: patent US5824668A, “Formulation for administration of steroid compounds” (priority 1996, dated 1998)
Entries after “also recorded” stand apart in the source; their conditions may differ.

How the values were obtained:
[1] = Dissolution of 5β steroid in water or in hydroxypropyl-β-cyclodextrin solution (Examples I-VII); format: physicochemical
Method: 12 milligrams (mg) of Etiocholandione (Steraloids, Inc. New Hampshire) was stirred and shaken with 0.5 ml of water in a test tube.
A 50% solution of hydroxypropyl-β-cyclodextrin was prepared as follows. 5 grams of pyrogen free hydroxypropyl-β-cyclodextrin (sold under the trade name Encapsin, Amaizo, Inc., Hammond, Ind., USA) was weighed on an analytical scale and placed in a graduated cylinder. Water was added with shaking until the volume reached 10 ml.
0.5 ml of the 50% solution of hydroxypropyl-β-cyclodextrin was added to the 0.5 ml of water containing 12 mg of Etiocholandione with additional shaking.
The previous experiment was repeated using a 50% solution of hydroxypropyl-β-cyclodextrin prepared as in Example 1. 50 mg of Etiocholandione was weighed and placed in a test tube. 2 ml of the 50% solution of hydroxypropyl-β-cyclodextrin was added to the test tube with shaking.
4 grams of hydroxypropyl-β-cyclodextrin was dissolved in 7 ml of distilled water to a total volume of 10 ml. Each ml of stock solution contained 0.4 g of solution hydroxypropyl-β-cyclodextrin. 20 mg of 3-β-hydroxy androstan-17-one (β-etiocholanolone) was shaken with 1 ml of the freshly prepared stock solution.
The same experiment as in example III was performed except that 40 mg of β-etiocholanolone was added to the stock solution of hydroxypropyl-β-cyclodextrin.
The same experiment as in example III was performed except that 20 mg of Etiocholandione was added to the stock solution of hydroxypropyl-β-cyclodextrin.
The same experiment as in example V was performed except that 40 mg of Etiocholandione was added to the stock solution of hydroxypropyl-β-cyclodextrin.
The same experiment as in Example V was performed except 80 mg or 250 mg ED was added to the stock solution.

[2] = Optical density of ET and ED dissolved in hydroxypropyl-β-cyclodextrin solutions; format: physicochemical
Method: The optical density (OD) of the ET and ED dissolved in hydroxypropyl-β-cyclodextrin solutions was determined at 400 NM against a blank control containing water and set at an OD of 0.0.

obese subjects = conditions: oral, cited from earlier work
[3] = cited from earlier work; for conversion in serum: normal and obese subjects, unpublished data; for oxidation at C-3 position to form etiocholandione: oral or parenteral; for recovery in the urine: parenteral routes
[4] = test system: genetically obese and diabetic mice; conditions: cited from earlier work; for effectiveness relative to DHEA in preventing development of diabetes: C57BL/KsJ-db/db diabetic mice; for blood sugar / effect on the pancreas (granulation of islet cells) / plasma insulin concentrations: Coleman 1984
Prader-Willi Syndrome = conditions: cited from earlier work
[5] = cited from earlier work; for influence on stabilization of mitomycin-C: acidic aqueous media, pH ranges studied
[6] = cited from earlier work; for pyrogenic reaction: intramuscular injection
auto-immune diseases = conditions: cited from earlier work
genetically obese mice = conditions: supplied in the diet, diabetic genetically obese mice; cited from earlier work
aplastic anemia patients = conditions: cited from earlier work; for patients with hematologic responses lasting longer than six months: of 43 patients treated with either α- and/or β ET, im
[7] = dissolved solution in hydroxypropyl-β-cyclodextrin, 400 NM, against water blank

For C[C@]12CCC(=O)C[C@H]1CC[C@@H]1[C@@H]2CC[C@]2(C)C(=O)CC[C@@H]12 [ED], the dissolution in water ([1]; 12 mg in 0.5 ml of water, after 5 minutes) was “Appreciable quantities of compound remained out of solution”, the appearance of solution ([1]; 12 mg in 1 ml of 25% hydroxypropyl-β-cyclodextrin) was “A clear solution was obtained” and the “time to complete dissolution” value ([1]; 20 mg in 1 ml stock solution (0.4 g/ml hydroxypropyl-β-cyclodextrin), room temperature, occasional shaking) was at most 6 h. For the same compound, the “time to complete dissolution” value ([1]; 40 mg in 1 ml stock solution (0.4 g/ml hydroxypropyl-β-cyclodextrin)) was at most 24 h, the appearance of solution ([1]; 50 mg in 2 ml of 50% hydroxypropyl-β-cyclodextrin) was “clear solution with no accumulation of crystals” and the time to dissolution ([1]; 50 mg in 2 ml of 50% hydroxypropyl-β-cyclodextrin, with shaking) was “Within one minute”. For the same compound, the complete dissolution ([1]; 80 mg added to stock solution (0.4 g/ml hydroxypropyl-β-cyclodextrin)) was “In neither case did the ED completely dissolve”, the complete dissolution ([1]; 250 mg added to stock solution (0.4 g/ml hydroxypropyl-β-cyclodextrin)) was “In neither case did the ED completely dissolve” and the “optical density (OD)” value [2, 7] was 0.12. For the same compound, the “optical density (OD)” value ([2]; hydroxypropyl-β-cyclodextrin solution containing 80 mg of ED, 499 NM) was 1.2, the “mean fat loss of the initial body fat content” value (obese subjects; 10-week period) was “about 5%” and the “weight and body fat loss vs placebo” value (obese subjects; 14 subjects) was “lost significantly more weight and body fat”. For the same compound, the fat loss (obese subjects; four grams per day) was “significant fat loss”, the mean weight loss (obese subjects; four grams per day) was 2.8±5.5 kilograms and the “mean weight loss normalized to body fat” value (obese subjects; four grams per day) was 0.5±0.91 kilograms per week per 100 kilograms of body fat. The “subjective or objective side effects” value (obese subjects) was “no significant subjective or objective side effects”, the “serum levels of α ET after administering ED” value ([3]; in vivo) was “high levels of α ET can be achieved in the serum” and the conversion in serum [3] was “quickly converted almost exclusively to α ET”.
For C[C@]12CC[C@@H](O)C[C@@H]1CC[C@@H]1[C@@H]2CC[C@]2(C)C(=O)CC[C@@H]12 [androsterone, reference compound], the “effectiveness relative to DHEA in preventing development of diabetes” value (“effectiveness relative to DHEA” for short) [4] is given as “but not androsterone or epiandrosterone”.
For C[C@]12CC[C@H](O)C[C@@H]1CC[C@@H]1[C@@H]2CC[C@]2(C)C(=O)CC[C@@H]12 [epiandrosterone, reference compound], the “effectiveness relative to DHEA” value [4] is listed as “but not androsterone or epiandrosterone”.
In the case of C[C@]12CC[C@@H](O)C[C@H]1CC[C@@H]1[C@@H]2CC[C@]2(C)C(=O)CC[C@@H]12 [etiocholanolone], the “weight change in treated individuals” value (Prader-Willi Syndrome) is given as “either weight loss or a decrease in the rate of weight gain”.
In the case of COC[C@H]1O[C@@H]2O[C@H]3[C@H](O)[C@@H](OC)[C@@H](O[C@H]4[C@H](O)[C@@H](OC)[C@@H](O[C@H]5[C@H](O)[C@@H](OC)[C@@H](O[C@H]6[C@H](O)[C@@H](OC)[C@@H](O[C@H]7[C@H](O)[C@@H](OC)[C@@H](O[C@H]8[C@H](O)[C@@H](OC)[C@@H](O[C@H]1[C@H](O)[C@H]2OC)O[C@@H]8COC)O[C@@H]7COC)O[C@@H]6COC)O[C@@H]5COC)O[C@@H]4COC)O[C@@H]3COC [heptakis-(2,6,-di-O-methyl)-β- cyclodextrin], the “influence on stabilization of mitomycin-C” value (“influence on stabilization” below) [5] is given as “no influence on stabilization of mitomycin-C pH degradation”.
In the case of C[C@]12C=CC(=O)C=C1CC[C@@H]1[C@@H]2[C@@H](O)C[C@@]2(C)[C@H]1CC[C@]2(O)C(=O)CO [prednisolone, reference compound], the “suppression of local irritation” value ([6]; minimal doses of 10 mg, with β-ET) is listed as “sufficient to suppress any local irritation”.
For C[C@]12C=CC(=O)C=C1CC[C@@H]1[C@@H]2C(=O)C[C@@]2(C)[C@H]1CC[C@]2(O)C(=O)CO [prednisone], the side effects (auto-immune diseases; in vivo) is given as “fluid retention and dramatic loss of bone or osteoporosis” and the “symptoms of auto-immune diseases” value (auto-immune diseases; ulcerative colitis, Chrone's disease, rheumatoid arthritis) is given as “effective in reducing the symptoms”.
In the case of C[C@]12CC[C@@H](O)C[C@H]1CC[C@@H]1[C@@H]2CC[C@]2(C)C(=O)CC[C@@H]12 [α ET], the anti-obesity effect (genetically obese mice) is given as “anti-obesity properties”, the development of obesity (genetically obese mice) is given as “can prevent and arrest the development of obesity” and the “weight reduction after obesity” value (genetically obese mice) is given as “facilitate weight reduction after obesity”. The “effectiveness relative to DHEA” value [4] was “four times more effective than DHEA”, the blood sugar [4] was “reduce blood sugar” and the “effect on the pancreas (granulation of islet cells)” value [4] was “protective effect on the pancreas”. The plasma insulin concentrations [4] was “increased plasma insulin concentrations”, the pyrogenic reaction [6] was “acute pyrogenic reactions; also recorded: pyrogenic reaction and notable patient discomfort” and the “patients with hematologic responses lasting longer than six months” value (aplastic anemia patients) was 17. For the same compound, the “oxidation at C3 position” value ([3]; IV, human subjects, isotopic ratio studies) was “rapidly oxidized and re-reduced”, the urinary excretion ([3]; normal individuals, endogenous) was 3-5 mg per day and the “oxidation at C-3 position to form etiocholandione” value [3] was “rapidly oxidized at the C-3 position”. For the same compound, the “recovery in the urine” value [3] was “almost exclusively α ET conjugates”.
In the case of OC[C@H]1O[C@@H]2O[C@H]3[C@H](O)[C@@H](O)[C@@H](O[C@H]4[C@H](O)[C@@H](O)[C@@H](O[C@H]5[C@H](O)[C@@H](O)[C@@H](O[C@H]6[C@H](O)[C@@H](O)[C@@H](O[C@H]7[C@H](O)[C@@H](O)[C@@H](O[C@H]1[C@H](O)[C@H]2O)O[C@@H]7CO)O[C@@H]6CO)O[C@@H]5CO)O[C@@H]4CO)O[C@@H]3CO [α-cyclodextrin], the “influence on stabilization” value [5] is listed as “no influence on stabilization of mitomycin-C pH degradation”.
For C[C@]12CC[C@H](O)C[C@H]1CC[C@@H]1[C@@H]2CC[C@]2(C)C(=O)CC[C@@H]12 [β ET, 3-β-hydroxy androstan-17-one], the “optical density (OD)” value [2, 7] is listed as 0.12, the anti-obesity effect (genetically obese mice) is listed as “anti-obesity properties” and the development of obesity (genetically obese mice) is listed as “can prevent and arrest the development of obesity”. The “weight reduction after obesity” value (genetically obese mice) was “facilitate weight reduction after obesity”, the “effectiveness relative to DHEA” value [4] was “four times more effective than DHEA” and the blood sugar [4] was “reduce blood sugar”. For the same compound, the “effect on the pancreas (granulation of islet cells)” value [4] was “protective effect on the pancreas”, the plasma insulin concentrations [4] was “increased plasma insulin concentrations” and the pyrogenic reaction [6] was “little pyrogenic effect”. The “patients with hematologic responses lasting longer than six months” value (aplastic anemia patients) was 17, the “hematologic recovery in non-responders to α ET” value (aplastic anemia patients; treated with β-ET) was “three patients who did not respond to α ET had a hematologic recovery” and the conversion in serum [3] was “quickly converted almost exclusively to α ET”. The “oxidation at C-3 position to form etiocholandione” value [3] was “rapidly oxidized at the C-3 position” and the “recovery in the urine” value [3] was “almost exclusively α ET conjugates”.
For OC[C@H]1O[C@@H]2O[C@H]3[C@H](O)[C@@H](O)[C@@H](O[C@H]4[C@H](O)[C@@H](O)[C@@H](O[C@H]5[C@H](O)[C@@H](O)[C@@H](O[C@H]6[C@H](O)[C@@H](O)[C@@H](O[C@H]7[C@H](O)[C@@H](O)[C@@H](O[C@H]8[C@H](O)[C@@H](O)[C@@H](O[C@H]1[C@H](O)[C@H]2O)O[C@@H]8CO)O[C@@H]7CO)O[C@@H]6CO)O[C@@H]5CO)O[C@@H]4CO)O[C@@H]3CO [β-cyclodextrin], the “influence on stabilization” value [5] is listed as “no influence on stabilization of mitomycin-C pH degradation”.
In the case of OC[C@H]1O[C@@H]2O[C@H]3[C@H](O)[C@@H](O)[C@@H](O[C@H]4[C@H](O)[C@@H](O)[C@@H](O[C@H]5[C@H](O)[C@@H](O)[C@@H](O[C@H]6[C@H](O)[C@@H](O)[C@@H](O[C@H]7[C@H](O)[C@@H](O)[C@@H](O[C@H]8[C@H](O)[C@@H](O)[C@@H](O[C@H]9[C@H](O)[C@@H](O)[C@@H](O[C@H]1[C@H](O)[C@H]2O)O[C@@H]9CO)O[C@@H]8CO)O[C@@H]7CO)O[C@@H]6CO)O[C@@H]5CO)O[C@@H]4CO)O[C@@H]3CO [γ-cyclodextrin], the “stabilizing effect on mitomycin” value ([5]; acidic media at pH above 1) is given as “measurable stabilizing effect on mitomycin”.
For dimethyl-β- cyclodextrin, the “influence on stabilization” value [5] is given as “no influence on stabilization of mitomycin-C pH degradation”.
